{"source": "patent US20180031513A1", "about": "“CELL CHIP-BASED QUANTITATIVE ANALYSIS OF UNDIFFERENTIATED HUMAN PLURIPOTENT STEM CELL” (SOGANG UNIVERSITY RESEARCH FOUNDATION, priority 2015, published 2018)", "assay_type_in_all_cases": "cell-based, human", "key": {"[1]": {"system": "SSEA3-positive vs SSEA3-negative populations of hESC mixed culture", "test": "Active caspase-3 apoptosis FACS in mixed culture of hESCs and differentiated cells derived therefrom", "settings": "40 nM, mixed culture of hESCs and differentiated cells derived therefrom (FIG. 10)", "source_text": "Cells were stained with respective fluorescent-labeled antibodies and analyzed using FACSCalibur (BD Biosciences). The following antibodies were used: Oct4 (Abcam), FITC Rat Anti-SSEA3 and PE Mouse Anti-Human TRA-1-60 (BD Pharminogen). For apoptosis assays, cells were stained using the PE Annexin V Apoptosis Detection Kit and the PE Active Caspase-3 Apoptosis Kit (BD Pharminogen) according to the manufacturer's direction.\n(§1) The present inventors reported two kinds of small molecules for inducing the selective apoptosis of undifferentiated hPSCs in previous studies (33). Therefore, it was predicted that, due to the induction of apoptosis by YM-155, treatment with YM-155 would decrease the number of hPSCs and thereby lower the ipc. […] Label-free cell chip-based quantification of residual undifferentiated hPSCs may be applied at the end stage, which is critical to determine whether any additional treatment of undifferentiated cells is required in order to ensure safety of tumor-free cell therapy. To mimic this situation, hiPSCs were co-cultured with hASMCs. After the co-culture in the cell chip, hiPSCs still maintained the specific colony morphology of hPSCs (FIG. 6C, left panel, black dotted line), but after 24 h of YM155 treatment, there was a typical colony morphology in hiPSCs but not in hASMCs (FIG. 6C, right panel, red dotted line)."}, "hiPSCs (SES8)": {"system": "hiPSCs (SES8)", "test": "Cell chip cyclic voltammetry (ipc) and cell number of hiPSCs after YM155 treatment", "settings": "24 h after dose-dependent YM155 treatment (FIG. 6A)", "experimental": "(§2) hESCs (H9; Wicell Research Institute) and hiPSCs (SES8; (32)) were cultured in mTeSR1 medium (StemCell Technologies) under feeder-free conditions. hASMCs and i-dSMCs were cultured in smooth muscle cell-specific medium, SMCM (ScienCell Research Laboratories), and hDFs were cultured in DMEM medium (Gibco) supplemented with 10% FBS and 0.1% gentamycin. Alkaline phosphatase staining was performed according to the direction included in the Alkaline Phosphatase Kit (Sigma).\n(§3) Cyclic voltammetry (CV) method was carried out using a CHIe660C Potentiostat (CH Instruments, Austin, Tex., USA). A fabricated chip, based on an Au electrode as a working electrode, an Ag/AgCl (1M KCl) as a reference electrode, and a Pt wire as a counter electrode was used. For the electrochemical measurement, cells were washed with PBS (0.01 M, PH 7.4). […] All measurements were replicated at least three times, and the cell number was calculated following detection.\n(§4) The present inventors reported two kinds of small molecules for inducing the selective apoptosis of undifferentiated hPSCs in previous studies (33). […] Label-free cell chip-based quantification of residual undifferentiated hPSCs may be applied at the end stage, which is critical to determine whether any additional treatment of undifferentiated cells is required in order to ensure safety of tumor-free cell therapy. […]"}, "hESCs (H9)": {"system": "hESCs (H9)", "test": "Cell chip cyclic voltammetry (ipc) of hESCs after YM155 treatment", "settings": "24 h after dose-dependent YM155 treatment (FIG. 6B)", "experimental": "as §2, §3, §4"}, "undifferentiated hPSCs": {"system": "undifferentiated hPSCs", "test": "Detection of specific cathodic peak potential (Epc) of hPSCs after YM-155 treatment", "settings": "after YM-155 treatment to ablate undifferentiated hPSCs", "experimental": "(§5) Cyclic voltammetry (CV) method was carried out using a CHIe660C Potentiostat (CH Instruments, Austin, Tex., USA). A fabricated chip, based on an Au electrode as a working electrode, an Ag/AgCl (1M KCl) as a reference electrode, and a Pt wire as a counter electrode was used. For the electrochemical measurement, cells were washed with PBS (0.01 M, PH 7.4). CV detection was performed between −0.2 V and 0.6 V at 0.1 V/s in mTeSR1 (StemCell Technologies, #05850). All measurements were replicated at least three times, and the cell number was calculated following detection."}, "[2]": {"system": "hiPSCs co-cultured with hASMCs", "test": "Cell chip ipc and colony morphology in mixed culture of hiPSCs and hASMCs after YM155 treatment", "experimental": "as §5, §1"}}}
{"smiles": "COCCn1c2c([n+](Cc3cnccn3)c1C)C(=O)c1ccccc1C2=O", "note": "[YM-155]", "values": [{"measurement": "apoptosis by active caspase-3", "setting": "[1]", "value": "shown in only SSEA3-positive populations, not in SSEA3-negative populations"}, {"measurement": "apoptosis by active caspase-3", "setting": "[1]; listed as YM-55", "value": "shown in only the SSEA3+(positive) population, but not in SSEA3-(negative) population"}, {"measurement": "cathodic peak current (ipc)", "setting": "hiPSCs (SES8)", "value": "markedly reduced"}, {"measurement": "number of cells", "setting": "hiPSCs (SES8)", "value": "markedly reduced"}, {"measurement": "cathodic peak current (ipc)", "setting": "hESCs (H9)", "value": "markedly reduced"}, {"measurement": "specific Epc of hPSCs", "setting": "undifferentiated hPSCs", "value": "completely disappeared"}, {"measurement": "ipc level upon co-culture of hiPSCs and hASMCs", "setting": "[2]; 40 nM YM155, compared with equal number of untreated hASMCs", "value": "as low as that of hASMCs"}, {"measurement": "hiPSC colony morphology on the cell chip", "setting": "[2]; 24 hour after treatment with 30 nM YM155, mixed culture of hiPSCs and hASMCs (FIG. 6C)", "value": "altered morphology of hiPSC colony"}, {"measurement": "ipc upon co-culture of hiPSCs and hASMCs", "setting": "[2]; mixed culture, 24 hours after treatment, different doses (FIG. 6D)", "value": "gradually decreased in a dose-dependent manner"}]}
